Experimental data as given in patent US11274091B2 (Dizal (Jiangsu) Pharmaceutical Co., Ltd., priority 2018, dated 2022).

Columns and labels:
[1] = target: human TRPC6 ion channel (Homo sapiens (Human), UniProt Q9Y210); test: Inhibition of TRPC6 FLIPR Assay (membrane potential dye, OAG challenge); type: cell-based; settings: TRPC6-HEK293 cells, OAG at EC80; most potent isolated isomer; mean of minimum 2 experiments
Source text: (§1) TRPC3 and TRPC6 channel opening causes an influx of predominantly calcium and sodium cations that result in a change in the electrical potential across the cell membrane. This change in membrane potential can be monitored using membrane potential dyes in the following FLIPR™ (Fluorescent Imaging Plate Reader) assays.
TRPC6-HEK293 was purchased from PerkinElmer (PerkinElmer, Product No.: AX-012-C), HEK293 cells were transfected using the pcDNA3.1(+)expression vector containing the coding sequence of the human TRPC6 ion channel. The coding sequence used is identical to coding sequence of GenBank NM_004621 with the exception of 2 synonym variations (t1683c and c2529t). The cells were grown in DMEM+10% fetal bovine serum (FBS) 0.5 mg/ml. Geneticin (ion channel expression selection) as culture medium.
TRPC6 cells were plated at 10K cells/well into 384-well polystyrene plates and then grown for 24 hs at 37° C. plus 5% CO2. After this time the media was aspirated using a Tecan plate washer and then replaced with 40 μL of dye loading buffer (130 mM NaCl, 5 mM KCl, 0.15 mM CaCl2, 1 mM MgCl2, 20 mM HEPES ((4-(2-hydroxyethyl)-1-piperazineethanesulfonic acid)), 5 mM NaHCO3). For TRPC6, a final concentration of 0.5× is used. Cells with membrane potential dye were then incubated for 30 mins at room temperature prior to beginning the experiments.
(§2) To test the effects of compounds on TRPC6 activity, compounds were first diluted in 100% DMSO to 3× the final concentration to be used in the experiments. Typical dose-response experiments ranged from 10 μM (top concentration) to 0.5 nM (lowest concentration). Ten microliters of 0.5× compound in 0.5% DMSO were added to 40 μL of cells incubated with membrane potential dye. Compound addition was performed on a FLIPRTetra or a FLIPR 384 (MDS Analytical Technologies, Molecular Devices, Sunnyvale, Calif., 94089, USA). After a 400 second incubation with compound, 12.5 of OAG (1-oleoyl-2-acetyl-sn-glycerol (OAG), Sigma, Gillingham, Dorset, SP8 4XT Cat #O6754-10 MG) was added at 5× the EC80 (typical EC80 for TRPC6=3 μM final). The OAG challenge is designed to measure the inhibitory activity of compounds on receptor-operated TRPC6 activation.
(§3) All data was normalized to low controls (buffer alone) or high controls (OAG EC100). Data was analyzed using an XC50 curve fitting module and reported as pIC50 or IC50 values. The values are averaged to determine a mean value, for a minimum of 2 experiments.

[2] = target: human TRPC3 ion channel (Homo sapiens (Human), UniProt Q13507); test: Inhibition of TRPC3 FLIPR Assay (membrane potential dye, OAG challenge); type: cell-based; settings: TRPC3 transfected AD293 cells, OAG at EC80; most potent isolated isomer; mean of minimum 2 experiments
human TRPC3 ion channel, sequence (Q13507 whole entry): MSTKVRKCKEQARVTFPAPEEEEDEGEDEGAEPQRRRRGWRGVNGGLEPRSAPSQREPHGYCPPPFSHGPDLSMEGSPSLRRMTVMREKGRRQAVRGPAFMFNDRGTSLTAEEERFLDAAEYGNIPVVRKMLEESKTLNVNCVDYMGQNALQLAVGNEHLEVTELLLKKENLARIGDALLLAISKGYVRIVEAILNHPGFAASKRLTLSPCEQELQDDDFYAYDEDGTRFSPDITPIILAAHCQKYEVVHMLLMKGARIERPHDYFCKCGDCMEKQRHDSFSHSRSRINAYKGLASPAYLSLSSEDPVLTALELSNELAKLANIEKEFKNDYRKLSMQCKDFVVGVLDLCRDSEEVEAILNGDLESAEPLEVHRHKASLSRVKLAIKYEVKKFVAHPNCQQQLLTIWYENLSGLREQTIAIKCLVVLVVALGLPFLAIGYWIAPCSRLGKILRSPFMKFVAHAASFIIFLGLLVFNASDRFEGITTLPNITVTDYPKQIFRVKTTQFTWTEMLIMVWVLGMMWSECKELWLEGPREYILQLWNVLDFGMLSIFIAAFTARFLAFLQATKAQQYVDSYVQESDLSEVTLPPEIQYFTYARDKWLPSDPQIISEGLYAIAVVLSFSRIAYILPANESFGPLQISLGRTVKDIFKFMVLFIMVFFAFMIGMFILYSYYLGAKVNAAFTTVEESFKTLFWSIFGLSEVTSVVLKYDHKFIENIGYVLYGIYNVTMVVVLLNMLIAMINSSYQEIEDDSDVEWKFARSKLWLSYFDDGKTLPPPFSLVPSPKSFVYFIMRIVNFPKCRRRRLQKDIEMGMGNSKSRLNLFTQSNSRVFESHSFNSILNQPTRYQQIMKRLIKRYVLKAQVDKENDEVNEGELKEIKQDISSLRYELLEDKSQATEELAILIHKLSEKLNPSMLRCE
Source text: as §1
AD293 cells were transfected using the PLVX-puro lentivirus vector containing the coding sequence of the human TRPC3 ion channel. Puromycin-resistant cells were selected by treating with […] puromycin for two weeks. Monoclonal cells were obtained by limiting dilution and compared for their response to OAG in a membrane potential assay. The cells were grown in DMEM+10% fetal bovine serum (FBS)+1 μg/mL puromycin as culture medium.
TRPC3 cells were plated at 9K/well into 384-well polystyrene plates. Cells were grown for 24 h at 37° C. plus 5% CO2 after which media was aspirated using a Tecan plate washer and replaced with 40 μL of dye loading buffer (130 mM NaCl, 5 mM KCl, 0.15 mM CaCl2, 1 mM MgCl2, 20 mM HEPES ((4-(2-hydroxyethyl)-1-piperazineethanesulfonic acid)), 5 mM NaHCO3). For TRPC3 a final concentration of 0.5× membrane potential dye (Molecular Devices Membrane Blue, FLIPR Membrane Potential Assay Kit (bulk), Product #R8034(BLUE), Molecular Devices, Sunnyvale, Calif., 94089, USA) was used. Cells with membrane potential dye were then incubated for 30 mins at room temperature prior to beginning the experiments.
as §2, with “TRPC3” for “TRPC6”, “5×” for “0.5×”, “Technologies).” for “Technologies, Molecular Devices, Sunnyvale, Calif., 94089, USA).”, “12.5 μL” for “12.5”, “OAG” for “OAG (1-oleoyl-2-acetyl-sn-glycerol (OAG), Sigma, Gillingham, Dorset, SP8 4XT Cat #O6754-10 MG)”, “TRPC3=2” for “TRPC6=3”
as §3

human TRPC6 ion channel, sequence (Q9Y210 whole entry): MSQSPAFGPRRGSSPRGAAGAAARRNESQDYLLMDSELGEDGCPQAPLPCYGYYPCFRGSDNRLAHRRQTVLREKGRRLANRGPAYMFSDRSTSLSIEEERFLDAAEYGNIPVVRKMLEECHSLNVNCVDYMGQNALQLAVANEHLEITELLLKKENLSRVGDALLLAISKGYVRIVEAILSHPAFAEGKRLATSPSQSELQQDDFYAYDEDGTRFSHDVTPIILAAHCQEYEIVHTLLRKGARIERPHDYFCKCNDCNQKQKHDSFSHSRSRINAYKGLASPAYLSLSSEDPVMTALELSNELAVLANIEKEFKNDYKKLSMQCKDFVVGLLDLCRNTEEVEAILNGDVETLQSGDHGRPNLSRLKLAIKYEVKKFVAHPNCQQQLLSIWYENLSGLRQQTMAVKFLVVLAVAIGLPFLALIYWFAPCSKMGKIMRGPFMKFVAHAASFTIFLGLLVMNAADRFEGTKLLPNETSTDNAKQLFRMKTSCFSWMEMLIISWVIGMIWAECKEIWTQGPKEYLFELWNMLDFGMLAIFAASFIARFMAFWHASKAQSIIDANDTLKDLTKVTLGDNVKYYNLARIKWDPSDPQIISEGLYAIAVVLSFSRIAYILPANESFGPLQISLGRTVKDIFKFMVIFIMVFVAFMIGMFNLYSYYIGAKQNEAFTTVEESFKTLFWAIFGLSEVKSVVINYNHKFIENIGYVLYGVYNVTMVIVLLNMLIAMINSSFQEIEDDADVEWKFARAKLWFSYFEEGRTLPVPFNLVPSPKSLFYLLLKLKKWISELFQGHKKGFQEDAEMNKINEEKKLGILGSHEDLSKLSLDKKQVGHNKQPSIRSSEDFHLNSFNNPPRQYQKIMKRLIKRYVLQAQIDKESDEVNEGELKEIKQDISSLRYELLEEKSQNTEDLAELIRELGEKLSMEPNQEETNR

| Compound | IC50 [1] [nM] | IC50 [2] [nM] |
| --- | --- | --- |
| N#Cc1ccc(OC2CC(c3ccc(F)cc3)CC2N2CCC[C@@H](N)C2)nc1 (single isomer, unassigned) [Example 26] | 9.51 | 25.5 |
| NC1CCCN(C2CC(c3ccc(F)cc3)CC2n2nccn2)C1 (stereo not drawn) [Example 1, 1-[4-(4-fluorophenyl)-2-(triazol-2-yl)cyclopentyl]piperidin-3-amine] | 3.37 | 17.7 |
| N#Cc1cnn(C2CC(c3ccc(F)cc3)CC2N2CCCC(N)C2)c1 (stereo not drawn) [Example 2, 1-[2-(3-amino-1-piperidyl)-4-(4-fluorophenyl)cyclopentyl]pyrazole-4-carbonitrile] | 7.97 | 8.31 |
| N#Cc1ccn(C2CC(c3ccc(F)cc3)CC2N2CCCC(N)C2)n1 (stereo not drawn) [Example 3, 1-[2-(3-amino-1-piperidyl)-4-(4-fluorophenyl)cyclopentyl]pyrazole-3-carbonitrile] | < 19.9 | 46.4 |
| N#Cc1ccn(C2CC(c3ccc(F)cc3)CC2N2CCCC(N)C2)c1 (stereo not drawn) [Example 4, 1-[2-(3-amino-1-piperidyl)-4-(4-fluorophenyl)cyclopentyl]pyrrole-3-carbonitrile] | 5.31 | 5.39 |
| N#Cc1cn(C2CC(c3ccc(F)cc3)CC2N2CCCC(N)C2)nn1 (stereo not drawn) [Example 5, 1-[2-(3-amino-1-piperidyl)-4-(4-fluorophenyl)cyclopentyl]triazole-4-carbonitrile] | 3.78 | 4.28 |
| N#Cc1cnn(C2CC(c3ccc(F)cc3)CC2N2CC(N)CC(F)C2)c1 (stereo not drawn) [Example 6, 1-[2-(3-amino-5-fluoro-1-piperidyl)-4-(4-fluorophenyl)cyclopentyl]pyrazole-4-carbonitrile] | 4.06 | 6.22 |
| N#Cc1cnn(C2CC(c3ccc(F)cc3)CC2N2CCC(F)(F)C(N)C2)c1 (stereo not drawn) [Example 7, 1-[2-(3-amino-4,4-difluoro-1-piperidyl)-4-(4-fluorophenyl)cyclopentyl]pyrazole-4-carbonitrile] | 16.2 | 17.5 |
| NC1CCCN(C2CC(c3ccc(F)cc3)CC2n2cccn2)C1 (stereo not drawn) [Example 8, 1-[4-(4-fluorophenyl)-2-pyrazol-1-yl-cyclopentyl]piperidin-3-amine] | 2.8 | 7.97 |
| NC1CC(F)CN(C2CC(c3ccc(F)cc3)CC2n2cccn2)C1 (stereo not drawn) [Example 9, 5-fluoro-1-[4-(4-fluorophenyl)-2-pyrazol-1-yl-cyclopentyl]piperidin-3-amine] | 3.4 | 6.64 |
| N[C@@H]1C[C@@H](F)CN([C@@H]2C[C@H](c3ccc(F)cc3)C[C@H]2n2cncn2)C1 [Example 10, (3R,5R)-5-fluoro-1-[(1R,2R,4S)-4-(4-fluorophenyl)-2-(1,2,4-triazol-1-yl)cyclopentyl]piperidin-3-amine] | 29.8 | 16 |
| NC1CC(F)CN(C2CC(c3ccc(F)cc3)CC2n2ncnn2)C1 (stereo not drawn) [Example 11, 5-fluoro-1-[4-(4-fluorophenyl)-2-(tetrazol-2-yl)cyclopentyl]piperidin-3-amine] | 10.6 | 4.03 |
| NC1CCCN(C2CC(c3ccc(F)cc3)CC2n2ncnn2)C1 (stereo not drawn) [Example 12, 1-[4-(4-fluorophenyl)-2-(tetrazol-2-yl)cyclopentyl]piperidin-3-amine] | 26.7 | 7.55 |
| N#Cc1ncn(C2CC(c3ccc(F)cc3)CC2N2CCCC(N)C2)n1 (stereo not drawn) [Example 13, 1-[2-(3-amino-1-piperidyl)-4-(4-fluorophenyl)cyclopentyl]-1,2,4-triazole-3-carbonitrile] | 7.1 | 14.3 |
| N#Cc1ccc(OC2CC(c3ccc(F)c(O)c3)CC2N2CCCC(N)C2)cc1 (stereo not drawn) [Example 14, 4-[2-(3-amino-1-piperidyl)-4-(4-fluoro-3-hydroxy-phenyl)cyclopentoxy]benzonitrile] | 17.4 | 58.8 |
| COc1cc(C2CC(Oc3ccc(C#N)cc3)C(N3CCCC(N)C3)C2)ccc1F (stereo not drawn) [Example 15, 4-[2-(3-amino-1-piperidyl)-4-(4-fluoro-3-methoxy-phenyl)cyclopentoxy]benzonitrile] | 9.51 | 22.5 |
| N#Cc1ccc(OC2CC(c3cccc(F)c3)CC2N2CCCC(N)C2)c(Cl)c1 (stereo not drawn) [Example 16, 4-[2-(3-amino-1-piperidyl)-4-(3-fluorophenyl)cyclopentoxy]-3-chloro-benzonitrile] | 19.3 | 69.5 |
| N#Cc1ccc(OC2CC(c3ccc(F)cc3)CC2N2CCC(F)(F)C(N)C2)cc1 (stereo not drawn) [Example 17, 4-[2-(3-amino-4,4-difluoro-1-piperidyl)-4-(4-fluorophenyl)cyclopentoxy]benzonitrile] | 20.7 | 46.1 |
| N#Cc1ccc(OC2CC(c3ccc(F)cc3)CC2N2CC(N)CC(F)(F)C2)cc1 (stereo not drawn) [Example 18, 4-[2-(5-amino-3,3-difluoro-1-piperidyl)-4-(4-fluorophenyl)cyclopentoxy]benzonitrile] | 31.1 | 42.5 |
| N#Cc1ccc(OC2CC(c3ccc(F)cc3)CC2N2CCCC(N)C2)cc1F (stereo not drawn) [Example 19, 4-[2-(3-amino-1-piperidyl)-4-(4-fluorophenyl)cyclopentoxy]-2-fluoro-benzonitrile] | 25.1 | 64.5 |
| N#Cc1ccccc1OC1CC(c2ccccc2)CC1N1CCCC(N)C1 (stereo not drawn) [Example 20, 2-[2-(3-amino-1-piperidyl)-4-phenyl-cyclopentoxy]benzonitrile] | 14.1 | 38.8 |
| N#Cc1ccc(OC2CC(c3ccccc3)CC2N2CCCC(N)C2)c(Cl)c1 (stereo not drawn) [Example 21, 4-[2-(3-amino-1-piperidyl)-4-phenyl-cyclopentoxy]-3-chloro-benzonitrile] | 17.4 | 72.3 |
| Cc1cc(C#N)nnc1OC1CC(c2ccc(F)cc2)CC1N1CC(N)CC(F)C1 (stereo not drawn) [Example 22, 6-[2-(3-amino-5-fluoro-1-piperidyl)-4-(4-fluorophenyl)cyclopentoxy]-5-methyl-pyridazine-3-carbonitrile] | 28.8 | 118 |
| NC1CCCN(C2CC(c3ccc(F)cc3)CC2Oc2nnccc2Cl)C1 (stereo not drawn) [Example 23, 1-[2-(4-chloropyridazin-3-yl)oxy-4-(4-fluorophenyl)cyclopentyl]piperidin-3-amine] | 6.56 | 11.3 |
| N#Cc1ccc(OC2CC(c3ccc(F)cc3)CC2N2CC(N)CC(F)C2)nn1 (stereo not drawn) [Example 24, 6-[2-(3-amino-5-fluoro-1-piperidyl)-4-(4-fluorophenyl)cyclopentoxy]pyridazine-3-carbonitrile] | > 11.8 | 7.2 |
| N[C@@H]1CCCN([C@H]2C[C@@H](c3ccc(F)cc3)C[C@@H]2Oc2cc(F)cnn2)C1 [Example 25, (R)-1-((1S,2S,4R)-4-(4-fluorophenyl)-2-(5-fluoropyridazin-3-yloxy)cyclopentyl)piperidin-3-amine] | 9.93 | 209 |
| N#Cc1ccc(OC2CC(c3ccc(F)cc3)CC2N2CCCC(N)C2)cn1 (stereo not drawn) [Example 27] | 22 | 50.7 |
